{
  "source": "patent US20220362199A1",
  "about": "“ENRICHED POLYUNSATURATED FATTY ACID COMPOSITIONS” (NUSEED NUTRITIONAL US INC., priority 2019, published 2022)",
  "test_system": "LPS-stimulated human peripheral blood mononuclear cells (PBMCs)",
  "assay": "In vitro inhibition of LPS-stimulated cytokine/chemokine/growth factor production (Milliplex 38-plex)",
  "type": "cell-based",
  "conditions": "for inhibitory activity on inflammatory cytokines: preliminary study, LPS-stimulated PBMC; for Inhibitory scale (0-5): D1 PBMC, 1 ng/mL LPS, 0 = no or very minimal inhibition, 1 to 2.5 = IFNγ, IL-1 series, IP-10, MCP-1, 3 = TNFα also, above 3 = some T cell cytokines, 5 = all cytokines inhibited; for immunomodulatory response type: approximately 10 μM, stimulatory = signal above 130%, inhibitory = signal below 70% of LPS-stimulated control (no FFA added)",
  "data": [
    {"molecule": "CC/C=C\\C/C=C\\C/C=C\\C/C=C\\C/C=C\\CCCCCC(=O)O", "note": "[DPAn-3, Docosapentaenoic acid n-3]", "values": [
      {"measurement": "inhibitory activity on inflammatory cytokines", "setting": "fatty acid as primary component or at higher amount in the preparation", "value": "significant inhibitory activity"}
    ]},
    {"molecule": "CC/C=C\\C/C=C\\C/C=C\\C/C=C\\C/C=C\\CCCCCC(=O)O", "note": "[Syn DPA, DPA]", "values": [
      {"measurement": "Inhibitory scale (0-5)", "setting": "30 μM FFA preparation", "value": 4.0},
      {"measurement": "immunomodulatory response type", "value": "both stimulatory and inhibitory responses"}
    ]},
    {"molecule": "ETA [Syn ETA]", "values": [
      {"measurement": "inhibitory effect on more than half the analytes", "setting": "30 μM dose, >50% reduction compared to LPS-stimulated control", "value": "strong inhibitory effect"},
      {"measurement": "Inhibitory scale (0-5)", "setting": "[…]", "value": 4.75},
      {"measurement": "immunomodulatory response type", "value": "both stimulatory and inhibitory responses"}
    ]},
    {"molecule": "Eicosatetraenoic acid [ETA]", "values": [
      {"measurement": "inhibitory activity on inflammatory cytokines", "setting": "[…]", "value": "significant inhibitory activity"}
    ]}
  ]
}
